Results on 19 molecules are retold here after US11331314B2, “Amine substituted triazole derivatives and uses thereof” (Bayer Pharma Aktiengesellschaft, priority 2017, dated 2022).

For one assay, the target named is T1, human V2 receptor (Homo sapiens, UniProt P30518).
T1 construct: expressed in transfected cells; host or cells: CHO K1 (ATCC) expressing firefly luciferase under a CRE-responsive promoter
Description: Cellular in vitro assay for determining vasopressin receptor activity, V2 receptor cell line (CRE-luciferase). The class given is cell-based. Particulars: CHO cell line transfected with the human V2 receptor; agonist [Arg8]-vasopressin at EC50 concentration; read-out: IC50 hV2. As for the experimental part: (§1) B-1. Cellular In Vitro Assay for Determining Vasopressin Receptor Activity
(§2) The identification of agonists and antagonists of the V1a and V2 vasopressin receptors from humans, rats and dogs as well as the quantification of the activity of the compounds of the invention is carried out using recombinant cell lines. These cell lines originally derive from a hamster's ovary epithelial cell (Chinese Hamster Ovary, CHO K1, ATCC: American Type Culture Collection, Manassas, Va. 20108, USA). The test cell lines constitutively express the human, rat or dog V1a or V2 receptors. In case of the Gαq-coupled V1a receptors, cells are also stably transfected with a modified form of the calcium-sensitive photoproteins aequorin (human and rat V1a) or obelin (dog V1a), which, after reconstitution with the cofactor coelenterazine, emit light when there are increases in free calcium concentrations [Rizzuto R, Simpson A W, Brini M, Pozzan T, Nature 358, 325-327 (1992); Illarionov B A, Bondar V S, Illarionova V A, Vysotski E S, Gene 153 (2), 273-274 (1995)]. The resulting vasopressin receptor cells react to stimulation of the recombinantly expressed V1a receptors by intracellular release of calcium ions, which can be quantified by the resulting photoprotein luminescence. The Gs-coupled V2 receptors are stably transfected into cell lines expressing the gene for firefly luciferase under control of a CRE-responsible promoter. Activation of V2 receptors induces the activation of the CRE-responsive promoter via cAMP increase, thereby inducing the expression of firefly luciferase. The light emitted by photoproteins of V1a cell lines as well as the light emitted by firefly luciferase of V2 cell lines corresponds to the activation or inhibition of the respective vasopressin receptor. The bioluminescence of the cell lines is detected using a suitable luminometer [Milligan G, Marshall F, Rees S, Trends in Pharmacological Sciences 17, 235-237 (1996)].
Vasopressin V2 Receptor Cell Lines:
On the day before the assay, the cells are plated out in culture medium (DMEM/F12, 2% FCS, 2 mM glutamine, 10 mM HEPES) in 384-well microtiter plates and kept in a cell incubator (96% humidity, 5% v/v CO2, 37° C.). On the day of the assay, test compounds in various concentrations and the agonist [Arg^8]-vasopressin at EC50 concentration are added together to the wells, and plates are incubated for 3 hours in a cell incubator. Upon addition of the cell lysis reagent Triton™ and the substrate luciferin, luminescence of firefly luciferase is measured in a luminometer.
(§3) Table 1A below lists individual IC50 values for the compounds of the invention (including racemic mixtures as well as separated enantiomers) that were obtained from cell lines transfected with the human V1a or V2 receptor: […]

A further assay concerns the target human V1a receptor (Homo sapiens, UniProt P37288). Description: Cellular in vitro assay for determining vasopressin receptor activity, V1a receptor cell line (photoprotein luminescence). It counts as cell-based. The following applies: for IC50: CHO cell line transfected with the human V1a receptor, agonist [Arg8]-vasopressin at EC50 concentration, read-out: IC50 hV1a; for ratio IC50 hV2/hV1a: selectivity ratio of the cellular IC50 values. As for the experimental part:
as §1, §2
Vasopressin V1a Receptor Cell Lines:
On the day before the assay, the cells are plated out in culture medium (DMEM/F12, 2% FCS, 2 mM glutamine, 10 mM HEPES, 5 μg/ml coelenterazine) in 384-well microtiter plates and kept in a cell incubator (96% humidity, 5% v/v CO2, 37° C.). On the day of the assay, test compounds in various concentrations are placed for 10 minutes in the wells of the microtiter plate before the agonist [Arg^8]-vasopressin at EC50 concentration is added. The resulting light signal is measured immediately in a luminometer.
as §3

T1 sequence (P30518 whole entry): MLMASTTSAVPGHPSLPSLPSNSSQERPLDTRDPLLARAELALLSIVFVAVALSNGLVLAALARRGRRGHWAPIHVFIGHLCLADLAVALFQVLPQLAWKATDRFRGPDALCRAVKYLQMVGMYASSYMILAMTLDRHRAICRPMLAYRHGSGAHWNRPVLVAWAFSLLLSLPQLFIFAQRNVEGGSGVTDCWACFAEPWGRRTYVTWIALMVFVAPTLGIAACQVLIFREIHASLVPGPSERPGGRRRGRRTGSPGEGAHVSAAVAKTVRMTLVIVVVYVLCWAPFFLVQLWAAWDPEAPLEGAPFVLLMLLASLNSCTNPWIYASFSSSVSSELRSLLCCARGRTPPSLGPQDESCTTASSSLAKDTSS
Sequence of human V1a receptor (P37288 whole entry): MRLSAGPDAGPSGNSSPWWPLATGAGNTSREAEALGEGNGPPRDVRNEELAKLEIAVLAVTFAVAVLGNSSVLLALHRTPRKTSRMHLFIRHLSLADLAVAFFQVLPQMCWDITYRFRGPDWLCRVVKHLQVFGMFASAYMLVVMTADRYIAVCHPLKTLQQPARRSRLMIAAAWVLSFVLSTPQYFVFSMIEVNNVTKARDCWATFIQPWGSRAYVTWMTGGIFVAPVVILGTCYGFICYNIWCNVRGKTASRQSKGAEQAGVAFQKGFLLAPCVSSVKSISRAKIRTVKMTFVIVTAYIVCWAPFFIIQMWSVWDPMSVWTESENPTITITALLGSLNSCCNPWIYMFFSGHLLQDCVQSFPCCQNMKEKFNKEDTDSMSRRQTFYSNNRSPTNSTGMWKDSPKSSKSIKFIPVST

What is called IC50 is the concentration needed to halve the response being measured. With `O=C1CCC(Nc2nc(Cn3nc(-c4ccc(Cl)cc4)n(C[C@H](O)C(F)(F)F)c3=O)nn2-c2ccccc2Cl)CN1` (mixture of isomers) [Example 60, 5-{[1-(2-Chlorophenyl)-3-({3-(4-chlorophenyl)-5-oxo-4-[(2S)-3,3,3-trifluoro-2-hydroxypropyl]-4,5-dihydro-1H-1,2,4-triazol-1-yl}methyl)-1H-1,2,4-triazol-5-yl]amino}piperidin-2-one], the IC50 at human V2 receptor amounted to 5.4 nM. At human V1a receptor, the IC50 stood at 0.44 nM and the “ratio IC50 hV2/hV1a” value is 12.3.
Regarding `O=C1CCC(CNc2nc(Cn3nc(-c4ccc(Cl)cc4)n(C[C@H](O)C(F)(F)F)c3=O)nn2-c2ccccc2Cl)N1` (mixture of isomers) [Example 63, 5-(4-Chlorophenyl)-2-{[1-(2-chlorophenyl)-5-({[5-oxopyrrolidin-2-yl]methyl}amino)-1H-1,2,4-triazol-3-yl]methyl}-4-[(2S)-3,3,3-trifluoro-2-hydroxypropyl]-2,4-dihydro-3H-1,2,4-triazol-3-one], the IC50 at human V2 receptor was 5.8 nM; at human V1a receptor it was 0.42 nM. Besides, the “ratio IC50 hV2/hV1a” value on human V1a receptor was found to be 14.0.
For `O=c1n(Cc2nc(N3CCNC(C(F)(F)F)C3)n(-c3ccccc3Cl)n2)nc(-c2ccc(Cl)cc2)n1C[C@H](O)C(F)(F)F` (mixture of isomers) [Example 66], in that order: 6.9 nM, 0.37 nM and 18.9.
`O=C1CC(Nc2nc(Cn3nc(-c4ccc(Cl)cc4)n(C[C@H](O)C(F)(F)F)c3=O)nn2-c2ccccc2Cl)CN1` (mixture of isomers) [Example 69, 5-(4-Chlorophenyl)-2-{[1-(2-chlorophenyl)-5-{[5-oxopyrrolidin-3-yl]amino}-1H-1,2,4-triazol-3-yl]methyl}-4-[(2S)-3,3,3-trifluoro-2-hydroxypropyl]-2,4-dihydro-3H-1,2,4-triazol-3-one]: the results for the 50% inhibitory concentration (IC50) at human V2 receptor and on human V1a receptor were 4.35 nM and 1.05 nM, respectively. Further, the “ratio IC50 hV2/hV1a” value on human V1a receptor was determined as 4.2.
On to `O=c1n(Cc2nc(N3CCOC(C(F)(F)F)C3)n(-c3ccccc3Cl)n2)nc(-c2ccc(Cl)cc2)n1C[C@H](O)C(F)(F)F` (mixture of isomers) [Example 77, 5-(4-Chlorophenyl)-2-({1-(2-chlorophenyl)-5-[2-(trifluoromethyl)morpholin-4-yl]-1H-1,2,4-triazol-3-yl}methyl)-4-[(2S)-3,3,3-trifluoro-2-hydroxypropyl]-2,4-dihydro-3H-1,2,4-triazol-3-one], for which the 50% inhibitory concentration (IC50) on human V2 receptor stood at 39 nM. For the same molecule, at human V1a receptor, the IC50 was 1.5 nM and the “ratio IC50 hV2/hV1a” value is 26.0.
For `O=C1CCC(Nc2nc(Cn3nc(-c4ccc(Cl)cc4)n(C[C@H](O)C(F)(F)F)c3=O)nn2CCC(F)(F)F)CN1` (mixture of isomers) [Example 99, 5-{[3-({3-(4-Chlorophenyl)-5-oxo-4-[(2S)-3,3,3-trifluoro-2-hydroxypropyl]-4,5-dihydro-1H-1,2,4-triazol-1-yl}methyl)-1-(3,3,3-trifluoropropyl)-1H-1,2,4-triazol-5-yl]amino}piperidin-2-one], in that order: 350 nM, 10.2 nM and 34.5.
In the same order, the values of `O=c1n(Cc2nc(N3CCOC(C(F)(F)F)C3)n(CCC(F)(F)F)n2)nc(-c2ccc(Cl)cc2)n1C[C@H](O)C(F)(F)F` (mixture of isomers) [Example 103, 5-(4-Chlorophenyl)-4-[(2S)-3,3,3-trifluoro-2-hydroxypropyl]-2-({5-[2-(trifluoromethyl)morpholin-4-yl]-1-(3,3,3-trifluoropropyl)-1H-1,2,4-triazol-3-yl}methyl)-2,4-dihydro-3H-1,2,4-triazol-3-one] are 245 nM, 30 nM and 8.2.
In the same order, the values of `O=c1n(Cc2nc(N3CCNC(C(F)(F)F)C3)n(CCC(F)(F)F)n2)nc(-c2ccc(Cl)cc2)n1C[C@H](O)C(F)(F)F` (mixture of isomers) [Example 106, 5-(4-Chlorophenyl)-4-[(2S)-3,3,3-trifluoro-2-hydroxypropyl]-2-({5-[3-(trifluoromethyl)piperazin-1-yl]-1-(3,3,3-trifluoropropyl)-1H-1,2,4-triazol-3-yl}methyl)-2,4-dihydro-3H-1,2,4-triazol-3-one] are 310 nM, 26.5 nM and 11.7.
In the case of `NC(CNc1nc(Cn2nc(-c3ccc(Cl)cc3)n(C[C@H](O)C(F)(F)F)c2=O)nn1-c1ccccc1Cl)C(F)(F)F` (single isomer, unassigned) [Example 7], the concentration for half-maximal inhibition (IC50) at human V2 receptor amounted to 1.12 nM. Also, on human V1a receptor, the half-inhibitory concentration (IC50) stood at 0.22 nM and the “ratio IC50 hV2/hV1a” value worked out at 5.2.
As for `NC(CNc1nc(Cn2nc(-c3ccc(Cl)cc3)n(C[C@H](O)C(F)(F)F)c2=O)nn1-c1ccccc1Cl)C(F)(F)F` (single isomer, unassigned) [Example 8], the half-maximal inhibitory concentration (IC50) is 1.69 nM at human V2 receptor and 0.31 nM on human V1a receptor. Also, at human V1a receptor, the “ratio IC50 hV2/hV1a” value was found to be 5.5.
In the same order, the values of `O=c1n(Cc2nc(N3CCC(O)(C(F)(F)F)C3)n(-c3ccccc3Cl)n2)nc(-c2ccc(Cl)cc2)n1C[C@H](O)C(F)(F)F` (single isomer, unassigned) [Example 14] are 5.85 nM, 0.96 nM and 6.1.
For `O=c1n(Cc2nc(N3CCC(O)(C(F)(F)F)C3)n(-c3ccccc3Cl)n2)nc(-c2ccc(Cl)cc2)n1C[C@H](O)C(F)(F)F` (single isomer, unassigned) [Example 15], in that order: 11.4 nM, 3.4 nM and 3.4.
For `O=C1NCCC1Nc1nc(Cn2nc(-c3ccc(Cl)cc3)n(C[C@H](O)C(F)(F)F)c2=O)nn1-c1ccccc1Cl` (single isomer, unassigned) [Example 17], in that order: 1.9 nM, 0.5 nM and 3.8.
Regarding `O=C1NCCC1Nc1nc(Cn2nc(-c3ccc(Cl)cc3)n(C[C@H](O)C(F)(F)F)c2=O)nn1-c1ccccc1Cl` (single isomer, unassigned) [Example 18], the IC50 at human V2 receptor was 1.35 nM. Moreover, at human V1a receptor, the IC50 is 0.81 nM and the “ratio IC50 hV2/hV1a” value was 1.7.
In the same order, the values of `CC1(O)CCN(c2nc(Cn3nc(-c4ccc(Cl)cc4)n(C[C@H](O)C(F)(F)F)c3=O)nn2-c2ccccc2Cl)C1` (single isomer, unassigned) [Example 30] are 2.7 nM, 0.38 nM and 7.2.
In the same order, the values of `CC1(O)CCN(c2nc(Cn3nc(-c4ccc(Cl)cc4)n(C[C@H](O)C(F)(F)F)c3=O)nn2-c2ccccc2Cl)C1` (single isomer, unassigned) [Example 31] are 8.35 nM, 1.08 nM and 7.7.
In the same order, the values of `O=C1CCC(Nc2nc(Cn3nc(-c4ccc(Cl)cc4)n(C[C@H](O)C(F)(F)F)c3=O)nn2-c2ccccc2Cl)CN1` (single isomer, unassigned) [Example 61] are 10.1 nM, 1.35 nM and 7.4.
Consider `O=C1CCC(Nc2nc(Cn3nc(-c4ccc(Cl)cc4)n(C[C@H](O)C(F)(F)F)c3=O)nn2-c2ccccc2Cl)CN1` (single isomer, unassigned) [Example 62], for which the IC50 at human V2 receptor amounted to 9.45 nM. In addition, on human V1a receptor, the IC50 was 1.3 nM and the “ratio IC50 hV2/hV1a” value came to 7.3.
As to `O=C1CCC(CNc2nc(Cn3nc(-c4ccc(Cl)cc4)n(C[C@H](O)C(F)(F)F)c3=O)nn2-c2ccccc2Cl)N1` (single isomer, unassigned) [Example 64], the IC50 on human V2 receptor amounted to 4.35 nM. Further, at human V1a receptor, the 50% inhibitory concentration (IC50) is 0.8 nM and the “ratio IC50 hV2/hV1a” value is listed as 5.5.
